{"source": "patent US10450295B2", "about": "“Method of using an indolinone molecule and derivatives for inhibiting liver fibrosis and hepatitis” (Acclaim BioMed USA LLC, priority 2013, dated 2019)", "key": {"human HSC (LX-2) cells": {"system": "human HSC (LX-2) cells", "assay": "Cell cycle analysis by flow cytometry (propidium iodide)", "assay_type": "cell-based", "conditions": "0.625 μM, vs control cultures", "description": "Human Hepatic Stellate cells (LX-2 cell line) (HSCs) were obtained from the Key Lab of Regenerative Medicine, Jinan University, Guangzhou, China, which were maintained in Dulbecco's Modified Eagle Medium (DMEM)+10% fetal calf serum and penicillin-streptomycin (100 unit/ml and 0.1 mg/ml, respectively), in 5% CO2 at 37° C. inside a humidified cell incubator. The culture medium was changed every three days. To test the effects of small molecule Hesperadin on the mouse and human HSCs, the cultures were treated with 0.625 μM of Hesperadin for 48 hrs. The cultures were then fixed in ice cold 70% ethanol and incubated in phosphate buffered saline with RNase (0.25 mg/ml), Propidium iodide dye (40 μg/ml) and 0.1% Triton X for an hour at room temperature. For cell cycle analysis, the Propidium iodide stained cells were examined using a flow cytometer (“BD LSRFortessa Cell Analyzer”). The proliferation of HSCs was also evaluated by the MTT staining assay with 3-(4,5-Dimethylthiazol-2-yl)-2,5-diphenyltetrazolium bromide). HSCs were plated at 1×10^4 cells/ml and culture overnight. Hesperadin (in serial dilutions) was then added into the culture medium for 48 hours. This was followed by addition of MTT (250 μg/ml) for a further 4 hours. The medium was eluted and the formazan crystal was dissolved in 100 μL of DMSO. The absorbance (at 570 nm) was measured using a BIORAD 3550 Microplate Reader. […]"}, "collagen type III": {"system": "collagen type III", "assay": "Immunofluorescent staining of HSC cultures, collagen type III", "assay_type": "cell-based, human", "conditions": "0.625 μM, 24-48 hours", "description": "Human Hepatic Stellate cells (LX-2 cell line) (HSCs) were obtained from the Key Lab of Regenerative Medicine, Jinan University, Guangzhou, China, which were maintained in Dulbecco's Modified Eagle Medium (DMEM)+10% fetal calf serum and penicillin-streptomycin (100 unit/ml and 0.1 mg/ml, respectively), in 5% CO2 at 37° C. inside a humidified cell incubator. The culture medium was changed every three days. To test the effects of small molecule Hesperadin on the mouse and human HSCs, the cultures were treated with 0.625 μM of Hesperadin for 48 hrs. The cultures were then fixed in ice cold 70% ethanol and incubated in phosphate buffered saline with RNase (0.25 mg/ml), Propidium iodide dye (40 μg/ml) and 0.1% Triton X for an hour at room temperature. For cell cycle analysis, the Propidium iodide stained cells were examined using a flow cytometer (“BD LSRFortessa Cell Analyzer”). The proliferation of HSCs was also evaluated by the MTT staining assay with 3-(4,5-Dimethylthiazol-2-yl)-2,5-diphenyltetrazolium bromide). […] The absorbance (at 570 nm) was measured using a BIORAD 3550 Microplate Reader. […] After washing, the sections were viewed and recorded using a FluoView FV1000 Confocal microscope and/or a Nikon i80 microscope respectively to identify the presence of HSC expressing collagens. The positive staining of Collagen types I, III and IV was analyzed with the Metamorph software."}, "[1]": {"system": "collagen 1A1 gene expression", "assay": "Real-time RT-PCR in HSC, collagen 1A1", "assay_type": "cell-based, human", "conditions": "0.625 μM, FIG. 7", "description": "(§1) Human Hepatic Stellate cells (LX-2 cell line) (HSCs) were obtained from the Key Lab of Regenerative Medicine, Jinan University, Guangzhou, China, which were maintained in Dulbecco's Modified Eagle Medium (DMEM)+10% fetal calf serum and penicillin-streptomycin (100 unit/ml and 0.1 mg/ml, respectively), in 5% CO2 at 37° C. inside a humidified cell incubator. The culture medium was changed every three days. To test the effects of small molecule Hesperadin on the mouse and human HSCs, the cultures were treated with 0.625 μM of Hesperadin for 48 hrs. […] The proliferation of HSCs was also evaluated by the MTT staining assay with 3-(4,5-Dimethylthiazol-2-yl)-2,5-diphenyltetrazolium bromide). […] The absorbance (at 570 nm) was measured using a BIORAD 3550 Microplate Reader. […]\n(§2) Collagen type-I, -III and -VI, MMP-2, MMP-9 and TIMP-1 gene expression was determined using quantitative real-time PCR. […] Quantitation of mRNA levels was performed using a SYBR® Premix Ex Taq™ Kit (Takara) in an Applied Biosystems 7900HT Fast Real-Time PCR System. To quantify the amount of specific mRNA in the samples, a standard curve was generated for each PCR run using four amounts of the cDNA synthesized from our HSC cultures and liver samples. […] Data was analyzed using a StatView software (Abacus Concepts Inc) with Student's t-test."}, "TIMP-1 gene expression": {"system": "TIMP-1 gene expression", "assay": "Real-time RT-PCR in HSC, TIMP-1", "assay_type": "cell-based, human", "conditions": "0.625 μM, FIG. 11", "description": "as §1, §2"}, "human Aurora B kinase": {"target": "human Aurora B kinase", "conditions": "read-out: IC50 for the prevention of the phosphorylation of substrate; cited from earlier work"}}, "note": "“Also recorded” adds a separate entry of the source."}
{"smiles": "CCS(=O)(=O)Nc1ccc2c(c1)/C(=C(/Nc1ccc(CN3CCCCC3)cc1)c1ccccc1)C(=O)N2", "note": "[Hesperadin, (Z)—N-(2-oxo-3-(Phenyl(4-(piperidin-1-ylmethyl)phenylamino)methylene)indolin-5-yl)ethanesulfonamide]", "values": [{"measurement": "cell-cycle progression of HSCs", "setting": "human HSC (LX-2) cells", "result": "significantly more HSCs in the G2-M phase; also recorded: appeared to block cytokinesis"}, {"measurement": "collagen type III expression (immunofluorescence)", "setting": "collagen type III", "result": "significantly inhibited; also recorded: inhibits the synthesis of collagen type III"}, {"measurement": "Collagen 1A1 mRNA expression", "setting": "[1]", "result": "confirmed by real-time RT-PCR analysis"}, {"measurement": "TIMP-1 mRNA expression", "setting": "TIMP-1 gene expression", "result": "inhibited"}, {"measurement": "IC50", "setting": "human Aurora B kinase", "result": 40, "unit": "nM"}]}
